Results from the NIST ThermoML archive (doi:10.1016/j.jct.2007.10.007).
Numbers after ± are expanded uncertainties.

Experiment: mn = molality of the nth substance listed, in mol/kg
Conditions: 298.15 K, 101 kPa, Liquid

With `O` [water] + CCCCn1cc[n+](C)c1.[Cl-] the speed of sound (m2 = 0) was 1497.6 ± 1.5 m/s.
In the case of `O` [water] + Cl.Cn1ccnc1, the speed of sound (m2 = 0) is reported as 1497.6 ± 1.5 m/s.
With `CCCCn1cc[n+](C)c1.[Cl-]` [1-butyl-3-methylimidazolium chloride] + O the mass density (m1 = 0.05281) was 997.72 ± 0.51 kg/m3, the speed of sound (m1 = 0.05281) was 1504.8 ± 1.5 m/s and the mass density (m1 = 0.09783) was 998.29 ± 0.51 kg/m3. The speed of sound (m1 = 0.09783) was 1510.5 ± 1.5 m/s, the mass density (m1 = 0.1433) was 998.85 ± 0.51 kg/m3 and the speed of sound (m1 = 0.1433) was 1516.7 ± 1.5 m/s. It also gave a mass density (m1 = 0.1998) of 999.56 ± 0.5 kg/m3, a speed of sound (m1 = 0.1998) of 1524.4 ± 1.5 m/s and a mass density (m1 = 0.2471) of 1000.15 ± 0.5 kg/m3. The speed of sound (m1 = 0.2471) was 1530.2 ± 1.5 m/s, the mass density (m1 = 0.2899) was 1000.69 ± 0.51 kg/m3 and the speed of sound (m1 = 0.2899) was 1535.5 ± 1.5 m/s. The mass density (m1 = 0.3173) was 1001.04 ± 0.51 kg/m3, the speed of sound (m1 = 0.3173) was 1539.1 ± 1.5 m/s and the mass density (m1 = 0.4052) was 1002.14 ± 0.52 kg/m3. It also gave a speed of sound (m1 = 0.4052) of 1549.9 ± 1.5 m/s, a mass density (m1 = 0.422) of 1002.35 ± 0.52 kg/m3 and a speed of sound (m1 = 0.422) of 1551.9 ± 1.5 m/s. The mass density (m1 = 0.4995) was 1003.31 ± 0.52 kg/m3 and the speed of sound (m1 = 0.4995) was 1562.2 ± 1.5 m/s.
In the case of `Cl.c1c[nH]cn1` [imidazolium chloride] + O, the mass density (m1 = 0.04296) is reported as 998.24 ± 0.51 kg/m3, the speed of sound (m1 = 0.04296) is reported as 1500.1 ± 1.5 m/s and the mass density (m1 = 0.1027) is reported as 999.89 ± 0.5 kg/m3. The speed of sound (m1 = 0.1027) was 1503.8 ± 1.5 m/s, the mass density (m1 = 0.153) was 1001.26 ± 0.51 kg/m3 and the speed of sound (m1 = 0.153) was 1507 ± 1.5 m/s. For the same molecule, the mass density (m1 = 0.1976) was 1002.47 ± 0.52 kg/m3, the speed of sound (m1 = 0.1976) was 1509.7 ± 1.5 m/s and the mass density (m1 = 0.2417) was 1003.72 ± 0.53 kg/m3. For the same molecule, the speed of sound (m1 = 0.2417) was 1512.4 ± 1.5 m/s, the mass density (m1 = 0.2914) was 1004.65 ± 0.53 kg/m3 and the speed of sound (m1 = 0.2914) was 1515.8 ± 1.5 m/s. The mass density (m1 = 0.34) was 1006.45 ± 0.55 kg/m3, the speed of sound (m1 = 0.34) was 1517.9 ± 1.5 m/s and the mass density (m1 = 0.3893) was 1007.62 ± 0.55 kg/m3. For the same molecule, the speed of sound (m1 = 0.3893) was 1521.2 ± 1.5 m/s, the mass density (m1 = 0.4495) was 1008.96 ± 0.56 kg/m3 and the speed of sound (m1 = 0.4495) was 1525.2 ± 1.5 m/s. It also gave a mass density (m1 = 0.5003) of 1010.31 ± 0.57 kg/m3 and a speed of sound (m1 = 0.5003) of 1527.9 ± 1.5 m/s.
In the case of `Cl.Cn1ccnc1` [1-methylimidazolium chloride] + O, the mass density (m1 = 0.05234) is reported as 998.29 ± 0.51 kg/m3, the speed of sound (m1 = 0.05234) is reported as 1501.6 ± 1.5 m/s and the mass density (m1 = 0.09548) is reported as 999.3 ± 0.51 kg/m3. The speed of sound (m1 = 0.09548) was 1504.7 ± 1.5 m/s, the mass density (m1 = 0.147) was 1000.49 ± 0.5 kg/m3 and the speed of sound (m1 = 0.147) was 1508.5 ± 1.5 m/s. It also gave a mass density (m1 = 0.1998) of 1001.69 ± 0.51 kg/m3, a speed of sound (m1 = 0.1998) of 1512.5 ± 1.5 m/s and a mass density (m1 = 0.2472) of 1002.77 ± 0.52 kg/m3. It also gave a speed of sound (m1 = 0.2472) of 1516 ± 1.5 m/s, a mass density (m1 = 0.3011) of 1003.97 ± 0.53 kg/m3 and a speed of sound (m1 = 0.3011) of 1519.9 ± 1.5 m/s. It also gave a mass density (m1 = 0.3555) of 1005.18 ± 0.54 kg/m3, a speed of sound (m1 = 0.3555) of 1523.9 ± 1.5 m/s and a mass density (m1 = 0.3994) of 1006.13 ± 0.54 kg/m3. For the same molecule, the speed of sound (m1 = 0.3994) was 1526.3 ± 1.5 m/s, the mass density (m1 = 0.4551) was 1007.35 ± 0.55 kg/m3 and the speed of sound (m1 = 0.4551) was 1530.5 ± 1.5 m/s. For the same molecule, the mass density (m1 = 0.5139) was 1008.62 ± 0.56 kg/m3 and the speed of sound (m1 = 0.5139) was 1534.6 ± 1.5 m/s.
`O` [water] + Cl.c1c[nH]cn1 showed a speed of sound (m2 = 0) of 1497.6 ± 1.5 m/s.
